In PMC6923382, “Small molecules that inhibit TNF signalling by stabilising an asymmetric form of the trimer” (Nature Communications, 2019):
Several values for one entry are separate records, joined by “and”; a condition that tells them apart may be missing. Identical values can stand only once.

Key:
[1] = Dynamic light scattering (colloidal aggregation); type: physicochemical; settings: 10 μM; no detergent; 25°C; n=5
Description: Dynamic light scattering (DLS) experiments have been performed with compounds […]
baseline control and positive control (miconazole at 100 μM) were included. The radius data […]
compound in the absence of detergent.
DLS data (Malvern Nano ZS). Each sample (150 μl) was measured 5 times in a low volume disposable sizing cuvette at 25°C using 173º non-invasive backscatter (NIBS). […]

TNF = TNF (Homo sapiens, UniProt P01375); assay: TNF L929 cytotoxicity assay, human TNF; type: cell-based; parameters: stabilise an asymmetrical form of the soluble TNF trimer
TNF, sequence (P01375 77-233 limits assumed): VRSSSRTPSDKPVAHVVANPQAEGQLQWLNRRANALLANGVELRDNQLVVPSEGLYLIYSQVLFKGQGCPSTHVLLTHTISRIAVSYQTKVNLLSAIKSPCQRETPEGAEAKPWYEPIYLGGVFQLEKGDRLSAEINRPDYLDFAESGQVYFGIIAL
Description: TNF (human or mouse) kills L929 cells which have been compromised by incubation with a sub-lethal concentration of actinomycin D, and this effect is inhibited with TNF biologics. Compounds were titrated in DMSO, and then pre-incubated with human or mouse TNF for 1 h. […] L929 cytotoxicity was measured by the addition of CellTitreGlo (Promega). Luminescence was measured after an incubation of at least 20 min in the dark. Percentage inhibition was calculated between unstimulated wells (maximum signal), and wells with TNF, DMSO and actinomycin D (minimum signal). The IC50 was calculated as the point of inflexion for a 4PL fitted curve. Mean IC50s are reported as a mean of at least two experiments.

mouse TNF = molecular target: T1, mouse TNF (Mus musculus, UniProt P06804); assay: Mouse TNF induced neutrophil recruitment in vivo; settings: for CD45+ GR-1+ cells/mL in the peritoneal cavity: mouse TNF, individual mice
T1 construct: stabilise an asymmetrical form of the soluble TNF trimer
T1 sequence (P06804 80-235 limits assumed): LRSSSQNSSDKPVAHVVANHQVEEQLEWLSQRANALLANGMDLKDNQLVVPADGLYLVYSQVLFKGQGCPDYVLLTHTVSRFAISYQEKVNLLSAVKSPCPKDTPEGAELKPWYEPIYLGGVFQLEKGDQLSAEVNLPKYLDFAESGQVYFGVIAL
Description: All in vivo studies were reviewed by an internal Ethical Review Body (ERB) and conducted in accordance with the Animals (Scientific Procedures) Act 1986, EU Directive 2010/63/EU. […] Anti-TNFα biologics, CDP571[21] (10 mg/kg) and etanercept (30 mg/kg), diluted in PBS, were dosed intravenously prior to human and mouse TNF challenge. Two hours after the TNF challenge, mice were sacrificed and the peritoneal cavity lavaged with 3 mL of FACS buffer. An aliquot (0.3 mL) of lavage fluid was used to assess the number CD45^+GR1^+ cells by flow cytometry. Briefly, the cells were treated with ACK lysis buffer, washed and suspended in FACS buffer prior to staining with FITC anti-mouse CD45 and PE anti-mouse GR1. Data are shown as mean ± standard error of the number of CD45^+GR-1^+ cells. Statistical significance (*p < 0.05, **p < 0.01, ****p < 0.0001) was determined using one-way ANOVA with Dunnett’s multiple comparison test.

With `Cc1ccc(C)c(Cn2c(C(O)c3ccncc3)nc3ccc(-c4cnn(C)c4)cc32)c1` (stereo not shown) [UCB-9260] the “colloidal aggregation (DLS radius)” value [1] was “no evidence of colloidal aggregation”, the Luminescence units (TNF; compound -logM 4.6) was 12619 Luminescence units and the Luminescence units (TNF; compound -logM 5.08) was 13471 Luminescence units. The Luminescence units (TNF; compound -logM 5.56) was 13691 Luminescence units, the Luminescence units (TNF; compound -logM 6.03) was 12384 Luminescence units and the Luminescence units (TNF; compound -logM 6.51) was 8197 Luminescence units. The Luminescence units (TNF; compound -logM 6.99) was 7043 Luminescence units, the Luminescence units (TNF; compound -logM 7.46) was 6740 Luminescence units and the Luminescence units (TNF; compound -logM 7.94) was 4803 Luminescence units. For the same molecule, the Luminescence units (TNF; compound -logM 8.42) was 3698 Luminescence units, the Luminescence units (TNF; compound -logM 8.9) was 3202 Luminescence units and the “CD45+ GR-1+ cells/mL in the peritoneal cavity” value (“CD45+ GR-1+ cells/mL” below) (mouse TNF; 10mg/kg) was 36683.8 cells/mL and 23446.5 cells/mL and 65459.0 cells/mL and 42287.7 cells/mL and 32860.3 cells/mL and 46170.3 cells/mL and 36366.5 cells/mL. The “CD45+ GR-1+ cells/mL” value (mouse TNF; 30mg/kg) was 68892.4 cells/mL and 37218.6 cells/mL and 45217.2 cells/mL and 30219.5 cells/mL and 27497.1 cells/mL and 16597.5 cells/mL, the “CD45+ GR-1+ cells/mL” value (mouse TNF; 100mg/kg) was 11514.8 cells/mL and 33134.0 cells/mL and 13657.2 cells/mL and 18518.9 cells/mL and 17977.4 cells/mL and 18837.9 cells/mL and 21785.8 cells/mL and 22316.6 cells/mL and the “CD45+ GR-1+ cells/mL” value (mouse TNF; 300mg/kg) was 6821.7 cells/mL and 12941.2 cells/mL and 5881.9 cells/mL and 6788.4 cells/mL and 5482.5 cells/mL and 47242.4 cells/mL and 15367.3 cells/mL and 2338.2 cells/mL. The “dose with significant inhibition of neutrophil recruitment” value (mouse TNF; oral, murine TNF i.p., CD45+GR1+ cells) was 10 mg/kg.
